Laboratory results published in paper doi:10.1101/2024.08.19.608619, “Discovery of potent SARS-CoV-2 nsp3 macrodomain inhibitors uncovers lack of translation to cellular antiviral response” (bioRxiv, 2024).
Where “and” joins values, the source holds several entries; their conditions need not be identical. Equal values may be shown once. Read-outs that look alike come from different tables or passages of the source.

Assays:
acetylcholinesterase (h) = molecular target: T1, acetylcholinesterase (h) (Homo sapiens, UniProt P22303); assay: In vitro CEREP profiling, acetylcholinesterase (h); assay type: biochemical; details: test compound concentration 10 uM; Enzyme and Cell-based assays; read-out: perc_inhibition: % inhibition of control enzyme activity, acetylcholinesterase (h)
T1 construct: purchased Eurofins Cerep (SafetyScreen44), recognised from the panel format
T1 sequence (P22303 32-614): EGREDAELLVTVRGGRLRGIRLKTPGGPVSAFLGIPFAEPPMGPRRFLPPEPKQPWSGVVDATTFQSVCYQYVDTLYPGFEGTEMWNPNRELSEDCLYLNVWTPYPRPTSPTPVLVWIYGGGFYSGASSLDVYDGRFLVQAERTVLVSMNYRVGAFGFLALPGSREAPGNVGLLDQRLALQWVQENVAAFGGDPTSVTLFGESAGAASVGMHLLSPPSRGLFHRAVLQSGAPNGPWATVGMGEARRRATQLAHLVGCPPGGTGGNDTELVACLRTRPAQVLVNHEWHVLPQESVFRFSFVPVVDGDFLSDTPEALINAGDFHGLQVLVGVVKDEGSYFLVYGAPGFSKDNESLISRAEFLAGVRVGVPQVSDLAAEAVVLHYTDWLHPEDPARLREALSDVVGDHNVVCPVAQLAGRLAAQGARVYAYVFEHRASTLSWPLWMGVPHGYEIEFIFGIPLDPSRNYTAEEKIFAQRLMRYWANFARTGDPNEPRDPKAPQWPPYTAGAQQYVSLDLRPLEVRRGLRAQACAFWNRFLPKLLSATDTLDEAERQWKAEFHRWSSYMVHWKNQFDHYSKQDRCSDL
Source text: (§1) Supplement media-1.zip/Safety_Panel_Profile.csv, table | column: perc_inhibition

beta2 (h) = molecular target: T2, beta2 (h) (Homo sapiens, UniProt P07550); assay: In vitro CEREP profiling, beta2 (h) (antagonist radioligand); assay type: binding; details: test compound 10 uM, read-out: perc_inhibition (% inhibition of the binding of a ligand specific for each target)
T2 construct: purchased Eurofins Cerep (SafetyScreen44), recognised from the panel format
T2 sequence (P07550 whole entry): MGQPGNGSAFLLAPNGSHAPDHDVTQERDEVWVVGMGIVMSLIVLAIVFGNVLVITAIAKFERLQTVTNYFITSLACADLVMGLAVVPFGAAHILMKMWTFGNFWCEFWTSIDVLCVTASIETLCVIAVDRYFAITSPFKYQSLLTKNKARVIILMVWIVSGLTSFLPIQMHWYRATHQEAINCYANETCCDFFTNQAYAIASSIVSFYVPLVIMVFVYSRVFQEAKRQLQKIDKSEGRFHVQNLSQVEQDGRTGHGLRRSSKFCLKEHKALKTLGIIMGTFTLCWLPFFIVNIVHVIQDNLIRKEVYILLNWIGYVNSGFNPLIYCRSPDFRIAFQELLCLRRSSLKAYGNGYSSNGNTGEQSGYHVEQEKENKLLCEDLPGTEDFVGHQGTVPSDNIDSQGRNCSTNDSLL
Source text: as §1

[1] = test system: SARS-CoV-2, isolate USA-WA1/2020; assay: microbe, parasite or virus in culture; assay type: cell-based; details: for perc_max_measured / perc_min_measured: HeLa-ACE2 SARS-CoV-2 antiviral effect without P-gp inhibitor
H1 (h) = molecular target: T3, H1 (h) (Homo sapiens, UniProt P35367); assay: In vitro CEREP profiling, H1 (h) (antagonist radioligand); assay type: binding; details: test compound concentration 10 uM, read-out: perc_inhibition (% inhibition of the binding of a ligand specific for each target)
T3 construct: purchased Eurofins Cerep (SafetyScreen44), recognised from the panel format
T3 sequence (P35367 whole entry): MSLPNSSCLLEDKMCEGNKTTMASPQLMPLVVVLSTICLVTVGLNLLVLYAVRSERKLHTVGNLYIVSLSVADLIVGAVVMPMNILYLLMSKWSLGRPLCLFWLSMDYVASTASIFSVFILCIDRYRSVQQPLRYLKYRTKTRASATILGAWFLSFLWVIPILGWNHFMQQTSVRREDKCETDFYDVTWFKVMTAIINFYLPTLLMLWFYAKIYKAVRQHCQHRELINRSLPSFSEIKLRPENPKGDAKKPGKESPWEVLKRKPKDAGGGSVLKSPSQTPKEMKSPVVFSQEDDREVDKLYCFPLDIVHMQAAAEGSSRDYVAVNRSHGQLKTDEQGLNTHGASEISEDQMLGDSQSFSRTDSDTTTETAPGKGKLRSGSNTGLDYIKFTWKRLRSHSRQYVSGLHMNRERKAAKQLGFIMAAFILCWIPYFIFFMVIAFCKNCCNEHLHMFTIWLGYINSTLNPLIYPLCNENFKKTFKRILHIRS
Source text: as §1

CB1 (h) = molecular target: T4, CB1 (h) (Homo sapiens, UniProt P21554); assay: In vitro CEREP profiling, CB1 (h) (agonist radioligand); assay type: binding; details: test compound 10 uM, read-out: perc_inhibition (% inhibition of the binding of a ligand specific for each target)
T4 construct: purchased Eurofins Cerep (SafetyScreen44), recognised from the panel format
T4 sequence (P21554 whole entry): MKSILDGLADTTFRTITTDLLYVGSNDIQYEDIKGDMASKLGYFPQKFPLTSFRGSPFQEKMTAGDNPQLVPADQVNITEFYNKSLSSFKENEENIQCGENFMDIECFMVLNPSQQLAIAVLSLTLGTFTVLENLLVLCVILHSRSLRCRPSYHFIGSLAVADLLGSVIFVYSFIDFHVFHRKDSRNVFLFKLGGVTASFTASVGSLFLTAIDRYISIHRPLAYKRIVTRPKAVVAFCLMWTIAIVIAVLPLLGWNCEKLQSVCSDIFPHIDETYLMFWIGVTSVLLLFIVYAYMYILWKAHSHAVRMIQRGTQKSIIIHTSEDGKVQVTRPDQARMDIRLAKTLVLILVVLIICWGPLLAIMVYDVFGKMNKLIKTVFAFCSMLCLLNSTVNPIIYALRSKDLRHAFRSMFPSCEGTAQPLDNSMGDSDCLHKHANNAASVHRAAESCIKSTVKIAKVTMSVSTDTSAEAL
Source text: as §1

ETA (h) = molecular target: T5, ETA (h) (Homo sapiens, UniProt P25101); assay: In vitro CEREP profiling, ETA (h) (agonist radioligand); assay type: binding; details: test compound 10 uM, read-out: perc_inhibition (% inhibition of the binding of a ligand specific for each target)
T5 construct: purchased Eurofins Cerep (SafetyScreen44), recognised from the panel format
T5 sequence (P25101 21-427): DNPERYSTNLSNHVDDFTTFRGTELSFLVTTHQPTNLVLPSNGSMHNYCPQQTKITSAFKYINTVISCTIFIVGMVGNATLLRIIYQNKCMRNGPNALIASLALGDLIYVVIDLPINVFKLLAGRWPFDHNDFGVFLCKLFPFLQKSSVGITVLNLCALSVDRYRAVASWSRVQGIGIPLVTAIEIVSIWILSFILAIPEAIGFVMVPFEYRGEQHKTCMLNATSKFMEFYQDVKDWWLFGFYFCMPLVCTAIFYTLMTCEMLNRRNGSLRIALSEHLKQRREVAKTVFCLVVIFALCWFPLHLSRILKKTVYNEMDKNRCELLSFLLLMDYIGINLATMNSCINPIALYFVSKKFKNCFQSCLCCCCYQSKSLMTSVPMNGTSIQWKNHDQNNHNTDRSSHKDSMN
Source text: as §1

[2] = In vitro dog liver microsomal stability; assay type: in vitro ADME
Source text: Supplement media-1.zip/Hepatic_Microsomal_Stability.csv, table | column: clint; t_half

SARS-CoV-2 = assay: Antiviral effect in iPSC-derived pneumocyte system; assay type: cell-based; details: iPSC pneumocytes SARS-CoV-2 antiviral effect
MDR1 = assay: Permeability Papp (AB) MDR1/MDCKII; details: dog; for Papp A→B: A to B; for Papp B→A: B to A
5-HT1A (h) = molecular target: T6, 5-HT1A (h) (Homo sapiens, UniProt P08908); assay: In vitro CEREP profiling, 5-HT1A (h) (agonist radioligand); assay type: binding; details: test compound concentration 10 uM, read-out: perc_inhibition (% inhibition of the binding of a ligand specific for each target)
T6 construct: purchased Eurofins Cerep (SafetyScreen44), recognised from the panel format
T6 sequence (P08908 1-422): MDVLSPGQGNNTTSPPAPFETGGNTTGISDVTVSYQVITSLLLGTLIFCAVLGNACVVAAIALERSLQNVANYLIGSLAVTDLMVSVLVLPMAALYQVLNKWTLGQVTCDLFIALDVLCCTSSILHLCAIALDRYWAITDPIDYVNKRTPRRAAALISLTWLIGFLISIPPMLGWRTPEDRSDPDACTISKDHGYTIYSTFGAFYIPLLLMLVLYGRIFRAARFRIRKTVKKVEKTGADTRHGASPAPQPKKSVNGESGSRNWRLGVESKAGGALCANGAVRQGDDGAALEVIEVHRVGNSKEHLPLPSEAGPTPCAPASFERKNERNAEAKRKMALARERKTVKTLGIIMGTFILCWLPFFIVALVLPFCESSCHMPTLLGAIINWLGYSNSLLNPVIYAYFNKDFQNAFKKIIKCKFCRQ
Source text: as §1

mu (MOP) (h) = molecular target: T7, mu (MOP) (h) (Homo sapiens, UniProt P35372); assay: In vitro CEREP profiling, mu (MOP) (h) (agonist radioligand); assay type: binding; details: test compound concentration 10 uM, read-out: perc_inhibition (% inhibition of the binding of a ligand specific for each target)
T7 construct: purchased Eurofins Cerep (SafetyScreen44), recognised from the panel format
T7 sequence (P35372 whole entry): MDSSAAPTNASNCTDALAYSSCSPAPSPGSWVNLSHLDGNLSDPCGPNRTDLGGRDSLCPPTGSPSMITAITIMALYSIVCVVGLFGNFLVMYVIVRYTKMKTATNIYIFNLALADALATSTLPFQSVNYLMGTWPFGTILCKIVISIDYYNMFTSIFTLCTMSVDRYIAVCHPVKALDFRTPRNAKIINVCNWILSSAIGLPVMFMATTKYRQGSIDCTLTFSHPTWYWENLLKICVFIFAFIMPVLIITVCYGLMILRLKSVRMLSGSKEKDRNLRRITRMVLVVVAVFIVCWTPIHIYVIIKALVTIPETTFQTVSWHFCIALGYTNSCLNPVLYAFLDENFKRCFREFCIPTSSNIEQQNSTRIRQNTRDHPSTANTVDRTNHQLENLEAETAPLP
Source text: as §1

alpha1A (h) = molecular target: T8, alpha1A (h) (Homo sapiens, UniProt P35348); assay: In vitro CEREP profiling, alpha1A (h) (antagonist radioligand); assay type: binding; details: test compound 10 uM, read-out: perc_inhibition (% inhibition of the binding of a ligand specific for each target)
T8 construct: purchased Eurofins Cerep (SafetyScreen44), recognised from the panel format
T8 sequence (P35348 1-466): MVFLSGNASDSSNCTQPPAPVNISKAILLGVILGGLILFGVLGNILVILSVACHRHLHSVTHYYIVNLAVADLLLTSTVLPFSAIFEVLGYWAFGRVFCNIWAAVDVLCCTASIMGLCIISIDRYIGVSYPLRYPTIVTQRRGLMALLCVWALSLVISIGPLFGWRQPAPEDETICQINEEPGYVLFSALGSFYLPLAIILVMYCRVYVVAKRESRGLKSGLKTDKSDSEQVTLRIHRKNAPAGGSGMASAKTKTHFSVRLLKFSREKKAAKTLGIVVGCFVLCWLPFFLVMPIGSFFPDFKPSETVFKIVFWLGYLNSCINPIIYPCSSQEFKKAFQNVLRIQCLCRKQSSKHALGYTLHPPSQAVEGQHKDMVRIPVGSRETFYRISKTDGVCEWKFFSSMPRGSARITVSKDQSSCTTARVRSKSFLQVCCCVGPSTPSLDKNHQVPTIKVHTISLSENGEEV
Source text: as §1

[3] = In vitro dog hepatocyte stability; assay type: in vitro ADME
Source text: (§2) Supplement media-1.zip/Hepatocyte_Stability.csv, table | column: clint; t_half

5-HT transporter (h) = molecular target: T9, 5-HT transporter (h) (Homo sapiens, UniProt P31645); assay: In vitro CEREP profiling, 5-HT transporter (h) (antagonist radioligand); details: test compound concentration 10 uM
T9 construct: purchased Eurofins Cerep (SafetyScreen44), recognised from the panel format
T9 sequence (P31645 whole entry): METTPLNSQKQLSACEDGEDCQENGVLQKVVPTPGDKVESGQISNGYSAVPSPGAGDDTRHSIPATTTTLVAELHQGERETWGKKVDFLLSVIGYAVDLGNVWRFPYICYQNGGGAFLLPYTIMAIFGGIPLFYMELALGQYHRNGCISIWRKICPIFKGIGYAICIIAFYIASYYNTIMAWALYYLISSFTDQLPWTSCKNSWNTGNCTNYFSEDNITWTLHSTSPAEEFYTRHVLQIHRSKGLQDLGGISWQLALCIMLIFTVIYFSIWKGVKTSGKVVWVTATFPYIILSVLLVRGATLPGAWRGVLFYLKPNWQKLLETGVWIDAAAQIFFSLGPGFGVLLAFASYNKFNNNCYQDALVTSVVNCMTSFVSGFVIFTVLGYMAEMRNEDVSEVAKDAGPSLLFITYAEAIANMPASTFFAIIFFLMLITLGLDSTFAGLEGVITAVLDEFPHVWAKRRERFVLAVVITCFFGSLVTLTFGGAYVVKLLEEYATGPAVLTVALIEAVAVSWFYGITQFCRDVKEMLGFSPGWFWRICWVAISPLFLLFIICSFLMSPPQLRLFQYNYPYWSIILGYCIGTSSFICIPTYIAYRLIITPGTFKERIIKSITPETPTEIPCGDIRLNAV
Source text: as §1

AR(h) = assay: In vitro CEREP profiling, AR(h) (agonist radioligand); assay type: binding, human; details: test compound concentration 10 uM
Source text: as §1

HeLa-ACE2 cells = details: for perc_max_measured: highest measured response of the dose series; for perc_min_measured: lowest measured response of the dose series
[4] = In vitro mouse hepatocyte stability; assay type: in vitro ADME
Source text: as §2

[5] = maximum measured response of dose series
[6] = minimum measured response of dose series
[7] = Severe acute respiratory syndrome coronavirus 2, HeLa-ACE2
[8] = Severe acute respiratory syndrome coronavirus 2, HeLa-ACE2, read-out: HelaACE2 EC50
[9] = Severe acute respiratory syndrome coronavirus 2
[10] = MDCK-MDR1, efflux_ratio, In vitro MDR1-MDCKII permeability, no inhibitor
[11] = MDCK-MDR1, papp_a_to_b_mean, In vitro MDR1-MDCKII permeability, no inhibitor
[12] = MDCK-MDR1, papp_b_to_a_mean, In vitro MDR1-MDCKII permeability, no inhibitor
[13] = protocol HeLa-ACE2 cytotoxicity

In the case of `CC(C)C(Nc1ncnc2[nH]c(C(=O)NC3CCN(C)C3)cc12)c1ccc2c(c1)S(=O)(=O)CCC2` (centres unmarked) [ASAP-0011198], the inhibition at 10 µM (acetylcholinesterase (h)) is reported as 28%, the inhibition at 10 µM (beta2 (h)) is reported as -3% and the perc_max_measured ([1]; maximum measured response) is reported as 109.068%. It also gave a perc_max_measured [1, 5] of 108.327%, a perc_min_measured ([1]; minimum measured response) of 93.8% and a perc_min_measured [1, 6] of 87.557%. It also gave an EC50 [1, 7] of over 20 µM, an EC90 [1, 7] of over 20 µM and an EC50 [1, 8] of over 20 µM. For the same molecule, the inhibition at 10 µM (H1 (h)) was 2%, the inhibition at 10 µM (CB1 (h)) was -10% and the inhibition at 10 µM (ETA (h)) was -6%. It also gave a t_half [2] of over 139.0 min, a microsomal CLint ([2]; liver microsomes) of under 5 µL/min/mg and an EC50 (SARS-CoV-2; [9]) of over 50 µM. It also gave an EC90 (SARS-CoV-2; [9]) of over 50 µM, a perc_max_measured (SARS-CoV-2; [5]) of 101.646% and a perc_min_measured (SARS-CoV-2; [6]) of 52.305%. It also gave an efflux ratio (MDR1; [10]) of 1.3, a Papp A→B (MDR1; MDCK-MDR1, papp_a_to_b_mean, In vitro MDR1-MDCKII permeability, mean) of 2.94 ×10⁻⁶ cm/s and a Papp A→B (MDR1; [11]) of 0.0323 ×10⁻⁶ cm/s. For the same molecule, the Papp B→A (MDR1; [12]) was 0.0411 ×10⁻⁶ cm/s, the efflux ratio (MDR1; MDCK-MDR1, with Cyclosporin A, efflux_ratio_inhibitor, MDR1-MDCKII, with inhibitor Cyclosporin A) was 1.7 and the Papp A→B (MDR1; MDCK-MDR1, with Cyclosporin A, papp_a_to_b_inhibitor_mean, MDR1-MDCKII, with inhibitor Cyclosporin A) was under 0.01 ×10⁻⁶ cm/s. The inhibition at 10 µM (5-HT1A (h)) was 14%, the inhibition at 10 µM (mu (MOP) (h)) was 7% and the inhibition at 10 µM (alpha1A (h)) was 38%. The t_half [3] was over 231.0 min, the hepatocyte CLint ([3]; hepatocytes) was under 3 µL/min/1e6 cells and the “perc_inhibition: % inhibition of the binding of a ligand specific for each target, 5-HT transporter (h) (antagonist radioligand)” value (5-HT transporter (h)) was 1%. For the same molecule, the “perc_inhibition (% inhibition of the binding of a ligand specific for each target)” value (AR(h)) was -5%, the cc10 (HeLa-ACE2 cells; HeLa-ACE2 cytotoxicity) was over 20.0 µM and the perc_max_measured (HeLa-ACE2 cells; HeLa-ACE2 cytotoxicity) was 148.177%. For the same molecule, the perc_min_measured (HeLa-ACE2 cells; HeLa-ACE2 cytotoxicity) was 90.706%, the CC50 (HeLa-ACE2 cells; [13]) was over 20 µM and the cc10 (HeLa-ACE2 cells; [13]) was over 20.0 µM. The perc_max_measured (HeLa-ACE2 cells; [13]) was 87.174%, the perc_min_measured (HeLa-ACE2 cells; [13]) was 78.327% and the clint [4] was 61.0 uL/min/1E6 cells. The t_half [4] was 10.1 min and 11.4 min and the hepatocyte CLint ([4]; mouse, hepatocytes) was 68.4 µL/min/1e6 cells.
`Cc1nn(C)cc1-c1cc2c(NC(c3ccc4c(c3)S(=O)(=O)CCC4)C(C)C)ncnc2[nH]1` (centres unmarked) [ASAP-0011446] showed an inhibition at 10 µM (acetylcholinesterase (h)) of 13%, an inhibition at 10 µM (beta2 (h)) of -7% and a perc_max_measured ([1]; maximum measured response) of 111.189%. The perc_max_measured [1, 5] was 120.747%, the perc_min_measured ([1]; minimum measured response) was 56.402% and the perc_min_measured [1, 6] was 82.491%. For the same molecule, the EC50 [1, 7] was over 20 µM, the EC90 [1, 7] was over 20 µM and the EC50 [1, 8] was over 20 µM. For the same molecule, the inhibition at 10 µM (H1 (h)) was 0%, the inhibition at 10 µM (CB1 (h)) was 0% and the inhibition at 10 µM (ETA (h)) was -4%. For the same molecule, the efflux ratio (MDR1; [10]) was 41.1, the Papp A→B (MDR1; [11]) was 0.0911 ×10⁻⁶ cm/s and the Papp B→A (MDR1; [12]) was 3.7 ×10⁻⁶ cm/s. The efflux ratio (MDR1; MDCK-MDR1, with Verapamil, efflux_ratio_inhibitor, MDR1-MDCKII, with inhibitor Verapamil) was 21.8, the Papp A→B (MDR1; MDCK-MDR1, with Verapamil, papp_a_to_b_inhibitor_mean, MDR1-MDCKII, with inhibitor Verapamil) was 0.216 ×10⁻⁶ cm/s and the Papp B→A (MDR1; MDCK-MDR1, with Verapamil, papp_b_to_a_inhibitor_mean, MDR1-MDCKII, with inhibitor Verapamil) was 4.7 ×10⁻⁶ cm/s. It also gave an inhibition at 10 µM (5-HT1A (h)) of 10%, an inhibition at 10 µM (mu (MOP) (h)) of 28% and an inhibition at 10 µM (alpha1A (h)) of 8%. For the same molecule, the “perc_inhibition: % inhibition of the binding of a ligand specific for each target, 5-HT transporter (h) (antagonist radioligand)” value (5-HT transporter (h)) was -4%, the “perc_inhibition (% inhibition of the binding of a ligand specific for each target)” value (AR(h)) was 6% and the cc10 (HeLa-ACE2 cells; HeLa-ACE2 cytotoxicity) was over 20.0 µM. It also gave a perc_max_measured (HeLa-ACE2 cells; HeLa-ACE2 cytotoxicity) of 134.035%, a perc_min_measured (HeLa-ACE2 cells; HeLa-ACE2 cytotoxicity) of 80.92% and a CC50 (HeLa-ACE2 cells; [13]) of over 20 µM. For the same molecule, the cc10 (HeLa-ACE2 cells; [13]) was over 20.0 µM, the perc_max_measured (HeLa-ACE2 cells; [13]) was 92.951% and the perc_min_measured (HeLa-ACE2 cells; [13]) was 82.728%.
